This passage reports viability, T/C results from PubChem BioAssay AID1963840 (Molecular Pharmacology Branch, DTP, NCI, 2024).

SMILES strings stand for the structures.
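Further: spheroids exposed to compounds for seven days; 100% = DMSO vehicle control viability.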

One experiment concerns 695427-040-R-J1-PDC complex spheroid viability. In words: Anticancer human tumor 695427-040-R-J1-PDC patient-derived colon adenocarcinoma cell line growth inhibition [POLQ]. Conditions: second compound 1 µM; first compound 0.316 µM; stronger effect = lower value. Put shortly: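 Three-cell-type spheroids modelling solid tumor plus stroma served as the readout system; POL inhibitors were tested individually and in combination, concentration ranges set by clinical Cmax where known.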
In the case of `CC(C)n1c(=O)n(C)c2cnc3cc(F)c(-c4ccc(OCCCN5CCCCC5)nc4)cc3c21` + Nc1ccc(C#CCN(C(=O)Cc2ncc(C(F)(F)F)cc2C(F)(F)F)c2ccc(F)cc2)nn1, the viability, T/C (commonly the ratio of treated to control) is 116%.
As for `CCc1cc2c(N3CCc4c(cc(Cn5ccnc5)cc4-c4cn(C)nc4C(F)(F)F)C3=O)cc(C)nc2c(OC)n1` + Nc1ccc(C#CCN(C(=O)Cc2ncc(C(F)(F)F)cc2C(F)(F)F)c2ccc(F)cc2)nn1, the viability, T/C is 99.3%.
With `CCc1cc2c(N3CCc4c(cc(Cn5ccnc5)cc4-c4cn(C)nc4C(F)(F)F)C3=O)ccnc2c(OC)n1` + Nc1ccc(C#CCN(C(=O)Cc2ncc(C(F)(F)F)cc2C(F)(F)F)c2ccc(F)cc2)nn1, the viability, T/C is 102%.
With `COc1cc2cc(C(=O)CCC(=O)O)sc2cc1OC` + Nc1ccc(C#CCN(C(=O)Cc2ncc(C(F)(F)F)cc2C(F)(F)F)c2ccc(F)cc2)nn1, the viability, T/C was 104%.

The experiment is the same for the next values; noted with them: second compound 1 µM; first compound 1 µM; stronger effect = lower value.
As to `C=CC(=O)N1CCN(c2nc(=O)n(-c3c(C)ccnc3C(C)C)c3nc(-c4c(O)cccc4F)c(F)cc23)C(C)C1` (stereo unspecified) + Nc1ccc(C#CCN(C(=O)Cc2ncc(C(F)(F)F)cc2C(F)(F)F)c2ccc(F)cc2)nn1, the viability, T/C is 101%.
The same measure, in the same setting: the value for `CC(C)n1c(=O)n(C)c2cnc3cc(F)c(-c4ccc(OCCCN5CCCCC5)nc4)cc3c21` + Nc1ccc(C#CCN(C(=O)Cc2ncc(C(F)(F)F)cc2C(F)(F)F)c2ccc(F)cc2)nn1 was 106%; that for `CCc1cc2c(N3CCc4c(cc(Cn5ccnc5)cc4-c4cn(C)nc4C(F)(F)F)C3=O)cc(C)nc2c(OC)n1` + Nc1ccc(C#CCN(C(=O)Cc2ncc(C(F)(F)F)cc2C(F)(F)F)c2ccc(F)cc2)nn1 was 105%.
With `CCc1cc2c(N3CCc4c(cc(Cn5ccnc5)cc4-c4cn(C)nc4C(F)(F)F)C3=O)ccnc2c(OC)n1` + Nc1ccc(C#CCN(C(=O)Cc2ncc(C(F)(F)F)cc2C(F)(F)F)c2ccc(F)cc2)nn1, the viability, T/C is 104%.
Turning to `COc1cc2cc(C(=O)CCC(=O)O)sc2cc1OC` + Nc1ccc(C#CCN(C(=O)Cc2ncc(C(F)(F)F)cc2C(F)(F)F)c2ccc(F)cc2)nn1, the viability, T/C is 108%.

Still in this experiment, the particulars now being: second compound 1 µM; first compound 3.16 µM; stronger effect = lower value.
With `C=CC(=O)N1CCN(c2nc(=O)n(-c3c(C)ccnc3C(C)C)c3nc(-c4c(O)cccc4F)c(F)cc23)C(C)C1` (stereo unspecified) + Nc1ccc(C#CCN(C(=O)Cc2ncc(C(F)(F)F)cc2C(F)(F)F)c2ccc(F)cc2)nn1, the viability, T/C was 107%.
Consider `CC(C)n1c(=O)n(C)c2cnc3cc(F)c(-c4ccc(OCCCN5CCCCC5)nc4)cc3c21` + Nc1ccc(C#CCN(C(=O)Cc2ncc(C(F)(F)F)cc2C(F)(F)F)c2ccc(F)cc2)nn1, for which the viability, T/C is 115%.
The same measure, in the same setting: in the case of `CCc1cc2c(N3CCc4c(cc(Cn5ccnc5)cc4-c4cn(C)nc4C(F)(F)F)C3=O)cc(C)nc2c(OC)n1` + Nc1ccc(C#CCN(C(=O)Cc2ncc(C(F)(F)F)cc2C(F)(F)F)c2ccc(F)cc2)nn1 it was 98.5%; in that of `CCc1cc2c(N3CCc4c(cc(Cn5ccnc5)cc4-c4cn(C)nc4C(F)(F)F)C3=O)ccnc2c(OC)n1` + Nc1ccc(C#CCN(C(=O)Cc2ncc(C(F)(F)F)cc2C(F)(F)F)c2ccc(F)cc2)nn1, 114%.
In the case of `COc1cc2cc(C(=O)CCC(=O)O)sc2cc1OC` + Nc1ccc(C#CCN(C(=O)Cc2ncc(C(F)(F)F)cc2C(F)(F)F)c2ccc(F)cc2)nn1, the viability, T/C is 120%.

Still in this experiment, the particulars now being: second compound 1 µM; first compound 10 µM; stronger effect = lower value.
Consider `C=CC(=O)N1CCN(c2nc(=O)n(-c3c(C)ccnc3C(C)C)c3nc(-c4c(O)cccc4F)c(F)cc23)C(C)C1` (stereo unspecified) + Nc1ccc(C#CCN(C(=O)Cc2ncc(C(F)(F)F)cc2C(F)(F)F)c2ccc(F)cc2)nn1, for which the viability, T/C was 96.9%.
Regarding `CC(C)n1c(=O)n(C)c2cnc3cc(F)c(-c4ccc(OCCCN5CCCCC5)nc4)cc3c21` + Nc1ccc(C#CCN(C(=O)Cc2ncc(C(F)(F)F)cc2C(F)(F)F)c2ccc(F)cc2)nn1, the viability, T/C is 82.4%.
As for `CCc1cc2c(N3CCc4c(cc(Cn5ccnc5)cc4-c4cn(C)nc4C(F)(F)F)C3=O)cc(C)nc2c(OC)n1` + Nc1ccc(C#CCN(C(=O)Cc2ncc(C(F)(F)F)cc2C(F)(F)F)c2ccc(F)cc2)nn1, the viability, T/C is 98.3%.
For `CCc1cc2c(N3CCc4c(cc(Cn5ccnc5)cc4-c4cn(C)nc4C(F)(F)F)C3=O)ccnc2c(OC)n1` + Nc1ccc(C#CCN(C(=O)Cc2ncc(C(F)(F)F)cc2C(F)(F)F)c2ccc(F)cc2)nn1, the viability, T/C is 84.5%.
Same read-out and setting: the value for `COc1cc2cc(C(=O)CCC(=O)O)sc2cc1OC` + Nc1ccc(C#CCN(C(=O)Cc2ncc(C(F)(F)F)cc2C(F)(F)F)c2ccc(F)cc2)nn1 was 89.7%.

Still in this experiment, the particulars now being: second compound 3.16 µM; first compound 0.0316 µM; stronger effect = lower value.
`C=CC(=O)N1CCN(c2nc(=O)n(-c3c(C)ccnc3C(C)C)c3nc(-c4c(O)cccc4F)c(F)cc23)C(C)C1` (stereo unspecified) + Nc1ccc(C#CCN(C(=O)Cc2ncc(C(F)(F)F)cc2C(F)(F)F)c2ccc(F)cc2)nn1: the viability, T/C is 105%.
The same measure, in the same setting: in the case of `CC(C)n1c(=O)n(C)c2cnc3cc(F)c(-c4ccc(OCCCN5CCCCC5)nc4)cc3c21` + Nc1ccc(C#CCN(C(=O)Cc2ncc(C(F)(F)F)cc2C(F)(F)F)c2ccc(F)cc2)nn1 it was 107%.
`CCc1cc2c(N3CCc4c(cc(Cn5ccnc5)cc4-c4cn(C)nc4C(F)(F)F)C3=O)cc(C)nc2c(OC)n1` + Nc1ccc(C#CCN(C(=O)Cc2ncc(C(F)(F)F)cc2C(F)(F)F)c2ccc(F)cc2)nn1: the viability, T/C is 109%.
Turning to `CCc1cc2c(N3CCc4c(cc(Cn5ccnc5)cc4-c4cn(C)nc4C(F)(F)F)C3=O)ccnc2c(OC)n1` + Nc1ccc(C#CCN(C(=O)Cc2ncc(C(F)(F)F)cc2C(F)(F)F)c2ccc(F)cc2)nn1, the viability, T/C was 116%.
As for `COc1cc2cc(C(=O)CCC(=O)O)sc2cc1OC` + Nc1ccc(C#CCN(C(=O)Cc2ncc(C(F)(F)F)cc2C(F)(F)F)c2ccc(F)cc2)nn1, the viability, T/C was 111%.

The same experiment, now with this note: second compound 3.16 µM; first compound 0.1 µM; stronger effect = lower value.
In the case of `C=CC(=O)N1CCN(c2nc(=O)n(-c3c(C)ccnc3C(C)C)c3nc(-c4c(O)cccc4F)c(F)cc23)C(C)C1` (stereo unspecified) + Nc1ccc(C#CCN(C(=O)Cc2ncc(C(F)(F)F)cc2C(F)(F)F)c2ccc(F)cc2)nn1, the viability, T/C is 101%.
Still for that read-out and setting: the value for `CC(C)n1c(=O)n(C)c2cnc3cc(F)c(-c4ccc(OCCCN5CCCCC5)nc4)cc3c21` + Nc1ccc(C#CCN(C(=O)Cc2ncc(C(F)(F)F)cc2C(F)(F)F)c2ccc(F)cc2)nn1 was 100%.
